Tests used:
TLR4/MD2/CD14 = TLR4/MD2/CD14 (Homo sapiens, UniProt O00206+Q9Y6Y9); experiment: Luciferase reporter assay in HEK-293+TLR4/MD2/CD14 cells; assay type: cell-based; details: corrected on renilla activity; ratios compared to non-stimulated cells; cells lysed 24 h after ligand
Description: (§1) Stable immortalized HEK-293+TLR2/6 and HEK-293+TLR4/MD2/CD14 (Invitrogen) cells were seeded in 6-well plates in 1× DMEM supplemented with 5% FBS, 1 mM glutamine, amino acids not essential 1× and pyruvate 0.01%. At 80% confluency, pcon3A-luciferase (pcon3A motif responses to KNFB activation) and TK-renilla vectors (99:1 ratio, respectively) were transfected with metafectene. The transfection medium was changed after 24 hours, and the cells were seeded in 96-well plates. Ligands were added 24 hours later at 80% confluence and cells were lysed after 24 h. Luciferase activity was read using the TwinLite kit (Perkin Elmer) on a Fluo Star Optima (BMG) plate reader and corrected based on renilla activity (three replicates per condition). All ratios were compared to the control condition (non-stimulated cells). We used Pam3CSK4, FSL-1, and Escherichia coli LPS as control ligands with agonistic effect mediated by TLR2/1, TLR2/6, and TLR4 receptors, respectively. TNF alpha was used as a positive control in all cell lines.

TLR2/6 = TLR2/6 (Homo sapiens, UniProt O60603+Q9Y2C9); experiment: Luciferase reporter assay in HEK-293+TLR2/6 cells; assay type: cell-based; details: corrected on renilla activity; ratios compared to non-stimulated cells; cells lysed 24 h after ligand
Description: as §1

Sequence of TLR4/MD2/CD14 (Q9Y6Y9 19-160): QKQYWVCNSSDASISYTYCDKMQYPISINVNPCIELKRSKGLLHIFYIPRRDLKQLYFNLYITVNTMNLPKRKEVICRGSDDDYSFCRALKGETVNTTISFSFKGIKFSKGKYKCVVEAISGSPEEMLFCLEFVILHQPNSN
Sequence of TLR4/MD2/CD14 (O00206 24-839): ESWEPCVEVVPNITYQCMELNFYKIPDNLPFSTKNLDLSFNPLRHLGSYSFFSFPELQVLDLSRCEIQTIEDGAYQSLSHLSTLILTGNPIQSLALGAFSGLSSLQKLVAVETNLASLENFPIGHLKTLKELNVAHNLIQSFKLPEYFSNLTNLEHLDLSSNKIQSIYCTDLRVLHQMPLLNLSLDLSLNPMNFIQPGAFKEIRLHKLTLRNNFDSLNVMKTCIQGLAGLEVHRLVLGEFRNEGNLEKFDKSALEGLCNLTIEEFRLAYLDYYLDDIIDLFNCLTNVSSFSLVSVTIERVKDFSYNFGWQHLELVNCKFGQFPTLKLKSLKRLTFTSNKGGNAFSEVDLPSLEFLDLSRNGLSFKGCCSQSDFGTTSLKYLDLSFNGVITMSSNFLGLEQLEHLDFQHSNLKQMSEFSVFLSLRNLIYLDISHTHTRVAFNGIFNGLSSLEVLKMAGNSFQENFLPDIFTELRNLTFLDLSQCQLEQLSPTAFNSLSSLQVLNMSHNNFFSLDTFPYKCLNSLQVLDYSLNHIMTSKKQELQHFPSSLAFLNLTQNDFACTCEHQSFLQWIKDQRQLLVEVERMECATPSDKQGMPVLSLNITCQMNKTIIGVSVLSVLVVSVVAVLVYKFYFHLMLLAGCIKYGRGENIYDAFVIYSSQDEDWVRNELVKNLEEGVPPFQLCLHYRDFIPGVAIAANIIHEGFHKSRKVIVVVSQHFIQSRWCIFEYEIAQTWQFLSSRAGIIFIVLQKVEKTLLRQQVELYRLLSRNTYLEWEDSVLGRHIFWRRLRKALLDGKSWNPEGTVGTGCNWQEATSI
Sequence of TLR2/6 (O60603 21-784): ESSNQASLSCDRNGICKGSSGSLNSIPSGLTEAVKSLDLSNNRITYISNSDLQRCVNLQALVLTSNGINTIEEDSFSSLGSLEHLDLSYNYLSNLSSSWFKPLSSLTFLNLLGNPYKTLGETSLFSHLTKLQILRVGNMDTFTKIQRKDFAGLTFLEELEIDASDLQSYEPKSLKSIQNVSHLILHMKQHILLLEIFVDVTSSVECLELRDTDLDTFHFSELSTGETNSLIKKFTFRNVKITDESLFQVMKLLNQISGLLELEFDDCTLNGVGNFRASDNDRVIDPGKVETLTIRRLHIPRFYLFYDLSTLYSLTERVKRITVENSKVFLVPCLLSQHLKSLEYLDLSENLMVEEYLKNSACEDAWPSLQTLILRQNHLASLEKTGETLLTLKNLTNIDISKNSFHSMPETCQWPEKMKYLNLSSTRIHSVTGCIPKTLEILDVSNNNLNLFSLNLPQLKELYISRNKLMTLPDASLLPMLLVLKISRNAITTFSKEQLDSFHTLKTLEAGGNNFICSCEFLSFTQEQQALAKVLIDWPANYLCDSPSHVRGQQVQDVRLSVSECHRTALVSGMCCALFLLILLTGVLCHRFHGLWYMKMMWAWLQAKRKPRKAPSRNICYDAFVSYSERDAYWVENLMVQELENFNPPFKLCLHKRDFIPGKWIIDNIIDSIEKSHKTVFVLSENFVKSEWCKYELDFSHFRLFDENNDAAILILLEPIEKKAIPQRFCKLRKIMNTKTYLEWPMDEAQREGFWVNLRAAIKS
Sequence of TLR2/6 (Q9Y2C9 32-796): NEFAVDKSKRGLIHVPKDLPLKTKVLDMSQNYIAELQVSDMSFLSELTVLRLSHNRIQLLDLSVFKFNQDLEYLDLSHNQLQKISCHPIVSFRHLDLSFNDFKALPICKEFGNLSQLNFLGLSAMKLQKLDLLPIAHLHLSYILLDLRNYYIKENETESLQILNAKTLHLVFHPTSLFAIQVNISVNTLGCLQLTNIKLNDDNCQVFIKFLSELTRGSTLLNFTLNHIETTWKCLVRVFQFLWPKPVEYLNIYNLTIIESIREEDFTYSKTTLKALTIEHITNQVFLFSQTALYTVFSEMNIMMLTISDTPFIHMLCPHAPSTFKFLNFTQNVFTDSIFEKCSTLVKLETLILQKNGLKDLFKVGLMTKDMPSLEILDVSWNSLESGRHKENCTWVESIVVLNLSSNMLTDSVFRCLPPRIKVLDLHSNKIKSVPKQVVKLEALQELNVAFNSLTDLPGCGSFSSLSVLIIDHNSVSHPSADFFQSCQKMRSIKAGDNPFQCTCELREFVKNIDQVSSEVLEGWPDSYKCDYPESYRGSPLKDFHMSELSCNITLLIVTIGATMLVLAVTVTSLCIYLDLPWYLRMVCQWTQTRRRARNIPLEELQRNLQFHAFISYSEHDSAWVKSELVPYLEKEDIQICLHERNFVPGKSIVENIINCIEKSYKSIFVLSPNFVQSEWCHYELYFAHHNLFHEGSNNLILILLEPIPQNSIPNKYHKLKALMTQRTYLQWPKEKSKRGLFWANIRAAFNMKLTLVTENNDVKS

Substance	HEK-TLR4 luciferase activity (TLR4/MD2/CD14)	HEK-TLR2 luciferase activity (TLR2/6)
FSL-1	1.123 fold vs non-stimulated cells	2.195 fold vs non-stimulated cells
Pam3CSK4	1.112 fold vs non-stimulated cells	4.079 fold vs non-stimulated cells
